This note sets out measurements from ChEMBL document CHEMBL5465560, “Selectivity Literature for EUbOPEN Chemogenomic Library” (2024).

In experiment [1] the target is T1, Serine/threonine-protein kinase LATS1 (Homo sapiens) (UniProt O95835).
T1 sequence (whole entry): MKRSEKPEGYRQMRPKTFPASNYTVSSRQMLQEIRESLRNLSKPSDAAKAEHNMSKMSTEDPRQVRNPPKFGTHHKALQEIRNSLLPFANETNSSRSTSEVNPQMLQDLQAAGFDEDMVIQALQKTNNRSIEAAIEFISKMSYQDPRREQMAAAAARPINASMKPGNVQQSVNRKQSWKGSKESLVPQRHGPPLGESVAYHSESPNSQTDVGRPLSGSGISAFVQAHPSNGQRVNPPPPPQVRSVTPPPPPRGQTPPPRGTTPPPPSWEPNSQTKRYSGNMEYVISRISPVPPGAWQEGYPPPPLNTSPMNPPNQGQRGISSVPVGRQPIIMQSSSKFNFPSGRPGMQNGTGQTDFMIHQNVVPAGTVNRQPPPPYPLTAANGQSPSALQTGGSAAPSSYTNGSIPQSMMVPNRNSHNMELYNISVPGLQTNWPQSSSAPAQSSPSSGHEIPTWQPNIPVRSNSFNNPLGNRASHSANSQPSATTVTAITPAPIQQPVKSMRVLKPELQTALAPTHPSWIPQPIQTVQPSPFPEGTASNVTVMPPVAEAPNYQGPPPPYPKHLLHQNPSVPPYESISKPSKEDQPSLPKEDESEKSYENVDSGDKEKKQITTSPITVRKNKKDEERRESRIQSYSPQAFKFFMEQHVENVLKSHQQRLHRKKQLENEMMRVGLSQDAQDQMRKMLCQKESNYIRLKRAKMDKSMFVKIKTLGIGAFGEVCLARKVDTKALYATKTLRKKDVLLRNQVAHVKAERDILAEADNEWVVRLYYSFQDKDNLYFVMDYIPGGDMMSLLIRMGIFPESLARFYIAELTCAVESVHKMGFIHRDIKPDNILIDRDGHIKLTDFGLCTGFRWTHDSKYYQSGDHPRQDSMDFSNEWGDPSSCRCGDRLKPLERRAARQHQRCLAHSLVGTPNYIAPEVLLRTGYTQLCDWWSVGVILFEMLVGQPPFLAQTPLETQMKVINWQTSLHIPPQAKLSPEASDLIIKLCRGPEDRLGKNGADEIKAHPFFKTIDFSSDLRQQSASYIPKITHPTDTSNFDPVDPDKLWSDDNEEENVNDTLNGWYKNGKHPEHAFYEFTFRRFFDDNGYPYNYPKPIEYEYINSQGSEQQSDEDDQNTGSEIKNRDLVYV
The experiment is described as follows: Selectivity interaction (Kinase panel (KiNativ target engagement assay in Jurkat cells)) EUB0001635a LATS1. The experiment is classed as cell-based. The note with it: at 1 µM.

Experiment [2] has as its target DNA (cytosine-5)-methyltransferase 3A (Homo sapiens) (UniProt Q9Y6K1). The settings on record: at 1 µM.
The target in experiment [3] is BDNF/NT-3 growth factors receptor (Homo sapiens) (UniProt Q16620). The experiment in a line: Selectivity interaction (KinomeScan (DiscoverX)) EUB0001079a NTRK2. The note with it: at 1 µM.
Experiment [4] has as its target Serine/threonine-protein kinase MARK2 (Homo sapiens) (UniProt Q7KZI7). The experiment is described as follows: Selectivity interaction (ActivX KiNativ screen (kinase selectivity in THP-1 cell lysates)) EUB0000639a MARK2. The class given is subcellular. The settings on record: lysate, at 5 µM.
Experiment [5] deals with T2, Ephrin type-B receptor 3 (Homo sapiens) (UniProt P54753).
T2 sequence (whole entry): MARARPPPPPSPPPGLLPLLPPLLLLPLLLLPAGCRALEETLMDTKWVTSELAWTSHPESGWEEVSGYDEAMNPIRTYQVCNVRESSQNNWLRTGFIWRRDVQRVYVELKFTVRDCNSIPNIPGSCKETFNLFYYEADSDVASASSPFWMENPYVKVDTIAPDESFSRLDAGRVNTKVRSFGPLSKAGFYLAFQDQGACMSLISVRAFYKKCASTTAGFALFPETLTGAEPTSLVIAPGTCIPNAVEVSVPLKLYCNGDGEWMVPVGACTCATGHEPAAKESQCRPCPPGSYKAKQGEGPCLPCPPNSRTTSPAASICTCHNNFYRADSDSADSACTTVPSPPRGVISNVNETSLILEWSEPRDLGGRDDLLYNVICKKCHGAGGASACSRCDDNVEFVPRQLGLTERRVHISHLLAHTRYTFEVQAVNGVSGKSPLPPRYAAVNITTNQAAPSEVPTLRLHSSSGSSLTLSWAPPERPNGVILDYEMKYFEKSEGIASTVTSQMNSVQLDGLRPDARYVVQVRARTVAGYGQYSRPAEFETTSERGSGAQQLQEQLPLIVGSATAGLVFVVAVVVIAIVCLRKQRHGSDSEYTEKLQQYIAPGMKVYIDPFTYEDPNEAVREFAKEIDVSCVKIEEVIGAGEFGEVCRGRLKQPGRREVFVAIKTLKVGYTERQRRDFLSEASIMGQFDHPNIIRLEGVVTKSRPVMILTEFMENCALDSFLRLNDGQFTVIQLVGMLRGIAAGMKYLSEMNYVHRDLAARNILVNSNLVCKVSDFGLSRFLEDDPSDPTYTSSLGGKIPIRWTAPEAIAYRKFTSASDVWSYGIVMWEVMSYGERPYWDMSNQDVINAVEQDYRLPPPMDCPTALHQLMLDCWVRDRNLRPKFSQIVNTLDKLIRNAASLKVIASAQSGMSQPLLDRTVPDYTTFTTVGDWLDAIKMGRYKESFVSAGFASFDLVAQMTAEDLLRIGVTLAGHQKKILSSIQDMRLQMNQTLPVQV
The experiment in a line: Selectivity interaction (KinomeScan (DiscoverX)) EUB0000045b EPHB3.

BDNF/NT-3 growth factors receptor (Homo sapiens), sequence (Q16620 32-822 limits assumed): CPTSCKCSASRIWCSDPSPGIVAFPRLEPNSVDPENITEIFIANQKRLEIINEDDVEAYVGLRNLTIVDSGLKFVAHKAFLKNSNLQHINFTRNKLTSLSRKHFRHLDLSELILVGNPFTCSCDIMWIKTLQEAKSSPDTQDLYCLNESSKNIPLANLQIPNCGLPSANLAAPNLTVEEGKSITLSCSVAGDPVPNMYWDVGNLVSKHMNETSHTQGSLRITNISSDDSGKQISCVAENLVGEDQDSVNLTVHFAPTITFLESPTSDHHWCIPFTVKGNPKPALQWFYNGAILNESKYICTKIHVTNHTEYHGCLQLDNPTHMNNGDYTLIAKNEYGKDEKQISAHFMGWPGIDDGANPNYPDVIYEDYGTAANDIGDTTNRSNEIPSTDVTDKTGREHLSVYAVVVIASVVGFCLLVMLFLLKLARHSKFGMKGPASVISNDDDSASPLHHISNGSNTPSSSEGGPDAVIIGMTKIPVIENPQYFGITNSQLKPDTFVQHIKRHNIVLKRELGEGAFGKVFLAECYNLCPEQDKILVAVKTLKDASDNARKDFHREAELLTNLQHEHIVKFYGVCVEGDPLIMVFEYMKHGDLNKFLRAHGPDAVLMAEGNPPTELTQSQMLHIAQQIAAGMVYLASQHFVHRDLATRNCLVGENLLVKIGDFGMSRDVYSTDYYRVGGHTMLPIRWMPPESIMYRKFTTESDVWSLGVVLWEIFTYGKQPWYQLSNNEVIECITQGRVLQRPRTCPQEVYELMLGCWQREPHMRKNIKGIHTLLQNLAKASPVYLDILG
DNA (cytosine-5)-methyltransferase 3A (Homo sapiens), sequence (Q9Y6K1 whole entry, looked up): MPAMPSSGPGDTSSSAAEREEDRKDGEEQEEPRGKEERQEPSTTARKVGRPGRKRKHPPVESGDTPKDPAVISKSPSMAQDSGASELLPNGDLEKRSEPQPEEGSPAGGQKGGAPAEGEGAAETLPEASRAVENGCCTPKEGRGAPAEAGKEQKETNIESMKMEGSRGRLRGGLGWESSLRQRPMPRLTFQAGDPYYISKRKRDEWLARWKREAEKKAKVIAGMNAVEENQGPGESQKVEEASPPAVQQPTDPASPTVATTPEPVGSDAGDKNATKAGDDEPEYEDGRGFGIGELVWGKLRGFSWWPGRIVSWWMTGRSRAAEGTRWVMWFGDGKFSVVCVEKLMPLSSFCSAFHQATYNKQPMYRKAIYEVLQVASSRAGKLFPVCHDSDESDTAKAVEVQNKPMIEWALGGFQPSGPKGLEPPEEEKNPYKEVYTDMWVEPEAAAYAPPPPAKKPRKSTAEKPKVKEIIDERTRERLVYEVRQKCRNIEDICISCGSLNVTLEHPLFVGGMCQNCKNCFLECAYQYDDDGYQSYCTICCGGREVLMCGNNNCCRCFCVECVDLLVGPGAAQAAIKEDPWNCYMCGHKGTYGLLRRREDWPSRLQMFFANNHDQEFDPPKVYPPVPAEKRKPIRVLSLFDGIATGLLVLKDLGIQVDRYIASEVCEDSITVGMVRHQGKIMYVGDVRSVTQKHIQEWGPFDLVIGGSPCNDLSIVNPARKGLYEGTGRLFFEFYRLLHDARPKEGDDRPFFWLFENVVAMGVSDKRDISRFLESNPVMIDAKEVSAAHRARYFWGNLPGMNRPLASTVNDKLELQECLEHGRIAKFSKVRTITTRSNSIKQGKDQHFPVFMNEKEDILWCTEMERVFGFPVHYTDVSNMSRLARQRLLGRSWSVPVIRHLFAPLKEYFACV
Serine/threonine-protein kinase MARK2 (Homo sapiens), sequence (Q7KZI7 whole entry): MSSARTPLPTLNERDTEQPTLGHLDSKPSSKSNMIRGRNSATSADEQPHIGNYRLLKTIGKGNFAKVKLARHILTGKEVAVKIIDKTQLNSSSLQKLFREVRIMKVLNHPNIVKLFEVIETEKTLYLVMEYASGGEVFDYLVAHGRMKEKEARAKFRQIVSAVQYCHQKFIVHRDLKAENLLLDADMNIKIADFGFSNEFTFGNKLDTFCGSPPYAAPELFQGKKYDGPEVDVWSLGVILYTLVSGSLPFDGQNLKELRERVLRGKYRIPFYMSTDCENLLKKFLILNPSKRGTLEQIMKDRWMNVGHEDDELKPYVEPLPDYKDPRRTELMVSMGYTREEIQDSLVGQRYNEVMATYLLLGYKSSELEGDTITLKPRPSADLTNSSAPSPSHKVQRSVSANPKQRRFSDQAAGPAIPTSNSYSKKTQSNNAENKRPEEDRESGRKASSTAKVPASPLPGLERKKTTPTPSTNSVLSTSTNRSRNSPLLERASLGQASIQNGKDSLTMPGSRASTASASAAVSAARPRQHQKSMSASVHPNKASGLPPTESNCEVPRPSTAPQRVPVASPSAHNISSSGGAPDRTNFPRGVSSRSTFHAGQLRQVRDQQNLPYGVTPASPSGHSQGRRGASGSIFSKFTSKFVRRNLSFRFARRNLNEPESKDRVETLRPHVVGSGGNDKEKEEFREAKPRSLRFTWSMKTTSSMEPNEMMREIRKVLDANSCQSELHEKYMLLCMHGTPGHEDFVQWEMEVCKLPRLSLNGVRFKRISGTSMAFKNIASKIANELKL

As for `C=CC(=O)Nc1ccc(C(=O)Nc2[nH]nc3c2CN(C(=O)N[C@H](CN(C)C)c2ccccc2)C3(C)C)cc1`, in experiment [1], the % of engagement amounted to 3.9%.
In turn, `CNCCN1CCC(c2cc(CN(C)C(=O)c3cccc(Oc4ccccc4)c3)ccn2)CC1` registered a % activity in experiment [2] of more than 90%.
Molecule `Nc1cnc(N2CCc3cc(S(=O)(=O)Nc4c(F)cc(Cl)cc4F)cc(N4CCCC4=O)c32)nc1` [TP-020n] came in with a % of control in experiment [3] of 100%.
In experiment [4], `CC[C@@H]1[C@H](F)C(=O)N[C@@H]1COc1nccc2cc(C(N)=O)c(OC)cc12` [ZIMLOVISERTIB] came in with a % of inhibition of 45.6%.
For `C=CC(=O)Nc1cc(-n2c(=O)ccc3cnc4ccc(-c5ccc(NS(C)(=O)=O)cc5)cc4c32)ccc1C`, the values for the % of control in experiment [5] (at 1 µM) and in experiment [5] (at 10 µM) were 83% and 88%, respectively.
